Like-named read-outs stand apart in the source and are kept apart here.
Columns and labels:
L2987 = experiment: Cytotoxicity assay (alamarBlue), lung line L2987, experiment 2; type: cell-based; details: Homo sapiens, read-out: IC50 values for L2987 experiment 2
Description: FIG. 1 is the cytotoxicity dose response curves for lung line L2987. […] Briefly, the assayed involved plating 1000 cells per well in a volume of 120 μL in a 96 well flat-bottom dish (Corning) on day -1. Twenty-four hours later the appropriate dilution of a compound of formula I was added in a volume of 30 μL complete medium (final volume 150 μL). The plates were sealed with a plate sealer (Dynatech Labs) to prevent evaporation. On day 5 the mylar film was removed and 15 μL of sterile alamarblue was added to each well and the cells were incubated 37° C. 5% CO2 for two hours. Using a Vmax plate reader the optical density for each well was determined having the […]. The 100% signal was determined for cells grown in complete medium containing only 0.5% DMSO. All wells were set-up in triplicate and the mean values were plotted in FIG. 1.

rhino mouse utriculi = experiment: Rhino mouse utriculi reduction assay; type: in vivo, hairless rhino mice (hr^rh /hr^rh); details: once daily for 5 days; for ED30 (concentration to reach 30% (half-maximum) utriculi reduction): topical in ethanol vehicle (50 μl), female rhino mice, 0.00033 mM to 16.5 mM; for activity in rhino mouse utriculi reduction model (in words): topical
Description: Representatives from compounds of formula I were tested for their effect on utriculi reduction on rhino mouse and directly compared to all-trans retinoic acid.
Six to nine week old female hairless rhino mice (hr^rh /hr^rh) were produced in the Bristol-Myers Squibb colony. Test retinoids in ethanol vehicle (50 μl) were applied to the dorsal area (approximately 1.5×3 cm^2) of rhino mice once daily for 5 days (Monday to Friday). For various retinoids, a dose response was obtained with concentrations ranging from 0.00033 mM to 16.5 mM. The animals were sacrificed on the following Monday by CO2 inhalation. A 7/8" full thickness punch was taken from the central dorsal area of each animal. The epidermis of the biopsy was removed from the dermis after incubation in 0.5% acetic acid overnight at 4° C. The separated epidermis was then fixed in formalin, dehydrated with ethanol, and cleared in xylene. To determine the utriculi diameter, each epidermis sheet was placed on a glass slide in xylene. For each specimen, the diameter of 40 utricules was measured with an image analysis system (IBM PC, Image Measure program and Olympus microscope with video camera). % Utriculi reduction was calculated as [formula]
Since the maximum effect in this assay is approximately 60% utriculi reduction, the activity of various test compounds is reported as ED30 in Table 1, the concentration to reach 30% (half-maximum) utriculi reduction.

[1] = tested on: squamous-cell carcinoma of the head and neck; details: Hong, W. K. et al., N. Engl. J. Med., 1990; cited from earlier work
[2] = 120 h, L2987, experiment 2, read on day 5, alamarBlue

Question: For CC1=C(/C=C/C(C)=C/C=C/C(C)=C/C(=O)O)C(C)(C)CCC1 [All trans retinoic acid, reference compound], which IC50 (L2987; L2987, 120 h) is on record?
Answer: The IC50 was 68 µM.

Question: For CC1(C)CC=C(c2cccs2)c2cc(C(=O)Nc3ccc(C(=O)O)cc3)ccc21 [I^2 a, 4-[[[[5,6-Dihydro-5,5-dimethvl-8-(2-thienyl)]-2naphthalenyl]carbonyl]amino]benzoic acid], which “ED30 (concentration to reach 30% (half-maximum) utriculi reduction)” value (rhino mouse utriculi) is on record?
Answer: The value was > 10000 µM.

Question: And the IC50 (L2987; [2])?
Answer: Its IC50 is 64 µM.

Question: Which IC50 (L2987; [2]) does the source give for Cc1ccsc1C1=CCC(C)(C)c2ccc(C(=O)Nc3ccc(C(=O)O)cc3)cc21 [I^2 b] here?
Answer: The IC50 was 50 µM.

Question: Which “activity in rhino mouse utriculi reduction model (in words)” value (rhino mouse utriculi) does the source give for CC1(C)CC=C(c2ccoc2)c2cc(C(=O)Nc3ccc(C(=O)O)cc3)ccc21 [I^2 d, 4-[[[[5,6-Dihydro-5,5-dimethyl-8-(3-furyl)]-2-naphthalenyl]carbonyl]amino]benzoic acid] here?
Answer: The value was “inactive”.

Question: For CC1(C)CC=C(c2ccsc2)c2cc(C(=O)Nc3ccc(C(=O)O)cc3)ccc21 [I^2 e, 4-[[[[5,6-Dihydro-5,5-dimethyl-8-(3-thienyl)]-2-naphthalenyl]carbonyl]amino]benzoic acid], which “ED30 (concentration to reach 30% (half-maximum) utriculi reduction)” value (rhino mouse utriculi) is on record?
Answer: The value was 3890 µM.

Question: For CC1(C)CC=C(c2cccnc2)c2cc(C(=O)Nc3ccc(C(=O)O)cc3)ccc21 [I^2 f, 4-[[[[5,6-Dihydro-5,5-dimethyl-8-(3-pyridinyl)]-2-naphthalenyl]carbonyl]amino]benzoic acid], which “activity in rhino mouse utriculi reduction model (in words)” value (rhino mouse utriculi) is on record?
Answer: The value was “inactive”.

Question: For Cn1cccc1C1=CCC(C)(C)c2ccc(C(=O)Nc3ccc(C(=O)O)cc3)cc21 [I^2 g, 4-[[[[5,6-Dihydro-5,5-dimethyl-8-(2-N-methylpyrolyl)]-2-naphthalenyl]carbonyl]amino]benzoic acid], which “ED30 (concentration to reach 30% (half-maximum) utriculi reduction)” value (rhino mouse utriculi) is on record?
Answer: The value was 2070 µM.

Question: For CC1=C(/C=C/C(C)=C/C=C/C(C)=C\C(=O)O)C(C)(C)CCC1 [Isotretinoin], which “prevention of second primary tumors (in words)” value [1] is on record?
Answer: Its value is “useful in prevention of second primary tumors”.

Source: US5849923A, “Heterocyclic-substituted naphthalenyl retinobenzoic acid derivatives” (Bristol-Myers Squibb Company, priority 1996, dated 1998)
